{
  "source": "patent US20250171430A1",
  "about": "“PYRAZOLYL COMPOUNDS AS KV7 CHANNEL ACTIVATORS” (Biohaven Therapeutics Ltd., priority 2022, published 2025)",
  "target": "T1, Kv7.2/7.3 (Homo sapiens, UniProt O43525+O43526)",
  "T1 construct": "Kv7.2 tetracycline-induced, Kv7.3 constitutive",
  "assay": "Kv7.2/7.3 Activation Assay (Thallium Flux Assay)",
  "format": "cell-based",
  "conditions": "hKV7.2/7.3 cell line; test compound at single concentration of 10 μM; fluorescence at 90 sec normalized to positive control (retigabine, 30 μM)",
  "in_short": "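Single-point activity at 10 μM (0.1% DMSO, HEPES-buffered saline, pH 7.4) was scored from fluorescence at 90 s relative to 30 μM retigabine. Categories were none <0.15, moderate 0.15-0.7 and high >0.7. Thallium influx after stimulus addition was followed with FluxOR II Green dye in hKv7.2/7.3 cells, Kv7.2 expressed under overnight tetracycline (10 ng/mL) induction.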",
  "data": [
    {"smiles": "C[C@@H](C(=O)Nc1nn(C)c(-c2ccc(F)cc2)c1C1CCC1)C(C)(C)C", "note": "[Compound 114, (R)-N-(4-cyclobutyl-5-(4-fluorophenyl)-1-methyl-1H-pyrazol-3-yl)-2,3,3-trimethylbutanamide]", "values": [
      {"measurement": "Kv7.2/7.3 Activity", "result": "++ (“++” High Activity ≥ 0.7)"}
    ]},
    {"smiles": "Cn1nc(NC(=O)C[C@H](O)C(C)(C)C)c(C2CCC2)c1-c1ccc(F)cc1", "note": "[Compound 115, (S)-N-(4-cyclobutyl-5-(4-fluorophenyl)-1-methyl-1H-pyrazol-3-yl)-3-hydroxy-4,4-dimethylpentanamide]", "values": [
      {"measurement": "Kv7.2/7.3 Activity", "result": "+ (“+” Moderate Activity 0.15-0.7)"}
    ]},
    {"smiles": "Cn1nc(NC(=O)C[C@](C)(O)C2CC(F)(F)C2)c(C2CCC2)c1-c1ccc(F)cc1", "note": "[Compound 116, (S)-N-(4-cyclobutyl-5-(4-fluorophenyl)-1-methyl-1H-pyrazol-3-yl)-3-(3,3-difluorocyclobutyl)-3-hydroxybutanamide]", "values": [
      {"measurement": "Kv7.2/7.3 Activity", "result": "+ (“+” Moderate Activity 0.15-0.7)"}
    ]},
    {"smiles": "Cn1nc(NC(=O)C(F)(F)C(C)(O)c2ccccc2)c(C2CCC2)c1-c1ccc(F)cc1", "note": "(stereo not drawn) [Compound 117, N-(4-cyclobutyl-5-(4-fluorophenyl)-1-methyl-1H-pyrazol-3-yl)-2,2-difluoro-3-hydroxy-3-phenylbutanamide]", "values": [
      {"measurement": "Kv7.2/7.3 Activity", "result": "++ (“++” High Activity ≥ 0.7)"}
    ]},
    {"smiles": "Cn1nc(NC(=O)[C@H]2C[C@@H](C(F)(F)F)C2)c(C2CCC2)c1-c1ccc(F)cc1", "note": "[Compound 118, (1S,3S)-N-(4-cyclobutyl-5-(4-fluorophenyl)-1-methyl-1H-pyrazol-3-yl)-3-(trifluoromethyl)cyclobutane-1-carboxamide]", "values": [
      {"measurement": "Kv7.2/7.3 Activity", "result": "++ (“++” High Activity ≥ 0.7)"}
    ]},
    {"smiles": "Cn1nc(NC(=O)[C@H]2C[C@H](C(F)(F)F)C2)c(C2CCC2)c1-c1ccc(F)cc1", "note": "[Compound 119, (1R,3R)-N-(4-cyclobutyl-5-(4-fluorophenyl)-1-methyl-1H-pyrazol-3-yl)-3-(trifluoromethyl)cyclobutane-1-carboxamide]", "values": [
      {"measurement": "Kv7.2/7.3 Activity", "result": "++ (“++” High Activity ≥ 0.7)"}
    ]},
    {"smiles": "Cn1nc(NC(=O)[C@@H]2CCC(F)(F)C2)c(C2CCC2)c1-c1ccc(F)cc1", "note": "[Compound 120, (R)-N-(4-cyclobutyl-5-(4-fluorophenyl)-1-methyl-1H-pyrazol-3-yl)-3,3-difluorocyclopentane-1-carboxamide]", "values": [
      {"measurement": "Kv7.2/7.3 Activity", "result": "++ (“++” High Activity ≥ 0.7)"}
    ]},
    {"smiles": "Cn1nc(NC(=O)C2CC(C)(C)C2)c(C2CCC2)c1-c1ccc(F)cc1", "note": "[Compound 121, N-(4-cyclobutyl-5-(4-fluorophenyl)-1-methyl-1H-pyrazol-3-yl)-3,3-dimethylcyclobutane-1-carboxamide]", "values": [
      {"measurement": "Kv7.2/7.3 Activity", "result": "++ (“++” High Activity ≥ 0.7)"}
    ]},
    {"smiles": "Cn1nc(NC(=O)[C@H]2C[C@@H](C)C2)c(C2CCC2)c1-c1ccc(F)cc1", "note": "[Compound 122, (1S,3S)-N-(4-cyclobutyl-5-(4-fluorophenyl)-1-methyl-1H-pyrazol-3-yl)-3-methylcyclobutane-1-carboxamide]", "values": [
      {"measurement": "Kv7.2/7.3 Activity", "result": "++ (“++” High Activity ≥ 0.7)"}
    ]},
    {"smiles": "Cn1nc(NC(=O)[C@H]2C[C@H](C)C2)c(C2CCC2)c1-c1ccc(F)cc1", "note": "[Compound 123, (1R,3R)-N-(4-cyclobutyl-5-(4-fluorophenyl)-1-methyl-1H-pyrazol-3-yl)-3-methylcyclobutane-1-carboxamide]", "values": [
      {"measurement": "Kv7.2/7.3 Activity", "result": "++ (“++” High Activity ≥ 0.7)"}
    ]},
    {"smiles": "Cn1nc(NC(=O)C2(C(F)(F)F)CCC2)c(C2CCC2)c1-c1ccc(F)cc1", "note": "[Compound 124, N-(4-cyclobutyl-5-(4-fluorophenyl)-1-methyl-1H-pyrazol-3-yl)-1-(trifluoromethyl)cyclobutane-1-carboxamide]", "values": [
      {"measurement": "Kv7.2/7.3 Activity", "result": "+ (“+” Moderate Activity 0.15-0.7)"}
    ]},
    {"smiles": "Cn1nc(NC(=O)C2CC(F)(F)C2)c(C2CCC2)c1-c1ccc(F)cc1", "note": "[Compound 125, N-(4-cyclobutyl-5-(4-fluorophenyl)-1-methyl-1H-pyrazol-3-yl)-3,3-difluorocyclobutane-1-carboxamide]", "values": [
      {"measurement": "Kv7.2/7.3 Activity", "result": "++ (“++” High Activity ≥ 0.7)"}
    ]},
    {"smiles": "Cn1nc(NC(=O)C2(C(F)(F)F)CC2)c(C2CCC2)c1-c1ccc(F)cc1", "note": "[Compound 126, N-(4-cyclobutyl-5-(4-fluorophenyl)-1-methyl-1H-pyrazol-3-yl)-1-(trifluoromethyl)cyclopropane-1-carboxamide]", "values": [
      {"measurement": "Kv7.2/7.3 Activity", "result": "++ (“++” High Activity ≥ 0.7)"}
    ]},
    {"smiles": "C[C@H](C(=O)Nc1nn(C)c(-c2ccc(F)cc2)c1C1CCC1)C1(C(F)(F)F)CC1", "note": "[Compound 127, (S)-N-(4-cyclobutyl-5-(4-fluorophenyl)-1-methyl-1H-pyrazol-3-yl)-2-(1-(trifluoromethyl)cyclopropyl)propanamide]", "values": [
      {"measurement": "Kv7.2/7.3 Activity", "result": "++ (“++” High Activity ≥ 0.7)"}
    ]},
    {"smiles": "C[C@@H](C(=O)Nc1nn(C)c(-c2ccc(F)cc2)c1C1CCC1)C1(C(F)(F)F)CC1", "note": "[Compound 128, (R)-N-(4-cyclobutyl-5-(4-fluorophenyl)-1-methyl-1H-pyrazol-3-yl)-2-(1-(trifluoromethyl)cyclopropyl)propanamide]", "values": [
      {"measurement": "Kv7.2/7.3 Activity", "result": "++ (“++” High Activity ≥ 0.7)"}
    ]},
    {"smiles": "C[C@H](C(=O)Nc1nn(C)c(-c2ccc(F)cc2)c1C1CCC1)C1CC(F)(F)C1", "note": "[Compound 129, (S)-N-(4-cyclobutyl-5-(4-fluorophenyl)-1-methyl-1H-pyrazol-3-yl)-2-(3,3-difluorocyclobutyl)propanamide]", "values": [
      {"measurement": "Kv7.2/7.3 Activity", "result": "++ (“++” High Activity ≥ 0.7)"}
    ]},
    {"smiles": "Cn1nc(NC(=O)C2(O)CC2)c(C2CCC2)c1-c1ccc(F)cc1", "note": "[Compound 130, N-(4-cyclobutyl-5-(4-fluorophenyl)-1-methyl-1H-pyrazol-3-yl)-1-hydroxycyclopropane-1-carboxamide]", "values": [
      {"measurement": "Kv7.2/7.3 Activity", "result": "− (“−” No Activity < 0.15)"}
    ]},
    {"smiles": "Cn1nc(NC(=O)C2(C(C)(F)F)CC2)c(C2CCC2)c1-c1ccc(F)cc1", "note": "[Compound 131, N-(4-cyclobutyl-5-(4-fluorophenyl)-1-methyl-1H-pyrazol-3-yl)-1-(1,1-difluoroethyl)cyclopropane-1-carboxamide]", "values": [
      {"measurement": "Kv7.2/7.3 Activity", "result": "++ (“++” High Activity ≥ 0.7)"}
    ]},
    {"smiles": "C[C@@H](C(=O)Nc1nn(C)c(-c2ccc(F)cc2)c1C1CCC1)C1CC(F)(F)C1", "note": "[Compound 132, (R)-N-(4-cyclobutyl-5-(4-fluorophenyl)-1-methyl-1H-pyrazol-3-yl)-2-(3,3-difluorocyclobutyl)propanamide]", "values": [
      {"measurement": "Kv7.2/7.3 Activity", "result": "+ (“+” Moderate Activity 0.15-0.7)"}
    ]},
    {"smiles": "Cn1nc(NC(=O)[C@H]2CC2(F)F)c(C2CCC2)c1-c1ccc(F)cc1", "note": "[Compound 133, (R)-N-(4-cyclobutyl-5-(4-fluorophenyl)-1-methyl-1H-pyrazol-3-yl)-2,2-difluorocyclopropane-1-carboxamide]", "values": [
      {"measurement": "Kv7.2/7.3 Activity", "result": "++ (“++” High Activity ≥ 0.7)"}
    ]},
    {"smiles": "Cn1nc(NC(=O)[C@@H]2CC2(F)F)c(C2CCC2)c1-c1ccc(F)cc1", "note": "[Compound 134, (S)-N-(4-cyclobutyl-5-(4-fluorophenyl)-1-methyl-1H-pyrazol-3-yl)-2,2-difluorocyclopropane-1-carboxamide]", "values": [
      {"measurement": "Kv7.2/7.3 Activity", "result": "− (“−” No Activity < 0.15)"}
    ]},
    {"smiles": "CC(C)C1(C(=O)Nc2nn(C)c(-c3ccc(F)cc3)c2C2CCC2)CC1", "note": "[Compound 136, N-(4-cyclobutyl-5-(4-fluorophenyl)-1-methyl-1H-pyrazol-3-yl)-1-isopropylcyclopropane-1-carboxamide]", "values": [
      {"measurement": "Kv7.2/7.3 Activity", "result": "++ (“++” High Activity ≥ 0.7)"}
    ]},
    {"smiles": "Cn1nc(NC(=O)C2(C3CC3)CC2)c(C2CCC2)c1-c1ccc(F)cc1", "note": "[Compound 137, N-(4-cyclobutyl-5-(4-fluorophenyl)-1-methyl-1H-pyrazol-3-yl)-[1,1'-bi(cyclopropane)]-1-carboxamide]", "values": [
      {"measurement": "Kv7.2/7.3 Activity", "result": "++ (“++” High Activity ≥ 0.7)"}
    ]},
    {"smiles": "CC(C)CC1(C(=O)Nc2nn(C)c(-c3ccc(F)cc3)c2C2CCC2)CC1", "note": "[Compound 138, N-(4-cyclobutyl-5-(4-fluorophenyl)-1-methyl-1H-pyrazol-3-yl)-1-isobutylcyclopropane-1-carboxamide]", "values": [
      {"measurement": "Kv7.2/7.3 Activity", "result": "++ (“++” High Activity ≥ 0.7)"}
    ]},
    {"smiles": "Cn1nc(NC(=O)[C@H]2CC2(F)F)c(C2(C)CCC2)c1-c1ccc(F)cc1", "note": "[Compound 139, (R)-2,2-difluoro-N-(5-(4-fluorophenyl)-1-methyl-4-(1-methylcyclobutyl)-1H-pyrazol-3-yl)cyclopropane-1-carboxamide]", "values": [
      {"measurement": "Kv7.2/7.3 Activity", "result": "++ (“++” High Activity ≥ 0.7)"}
    ]},
    {"smiles": "Cn1nc(NC(=O)[C@@H]2CC2(F)F)c(C2(C)CCC2)c1-c1ccc(F)cc1", "note": "[Compound 140, (S)-2,2-difluoro-N-(5-(4-fluorophenyl)-1-methyl-4-(1-methylcyclobutyl)-1H-pyrazol-3-yl)cyclopropane-1-carboxamide]", "values": [
      {"measurement": "Kv7.2/7.3 Activity", "result": "+ (“+” Moderate Activity 0.15-0.7)"}
    ]},
    {"smiles": "CC(F)(F)C1(C(=O)Nc2nn(CC(F)(F)F)c(-c3ccc(F)cc3)c2C2CCC2)CC1", "note": "[Compound 141, N-(4-cyclobutyl-5-(4-fluorophenyl)-1-(2,2,2-trifluoroethyl)-1H-pyrazol-3-yl)-1-(1,1-difluoroethyl)cyclopropane-1-carboxamide]", "values": [
      {"measurement": "Kv7.2/7.3 Activity", "result": "− (“−” No Activity < 0.15)"}
    ]},
    {"smiles": "C[C@H](C(=O)Nc1nn(CC(F)(F)F)c(-c2ccc(F)cc2)c1C1CCC1)C1(C(F)(F)F)CC1", "note": "[Compound 142, (S)-N-(4-cyclobutyl-5-(4-fluorophenyl)-1-(2,2,2-trifluoroethyl)-1H-pyrazol-3-yl)-2-(1-(trifluoromethyl)cyclopropyl)propanamide]", "values": [
      {"measurement": "Kv7.2/7.3 Activity", "result": "− (“−” No Activity < 0.15)"}
    ]},
    {"smiles": "C[C@@H](C(=O)Nc1nn(CC(F)(F)F)c(-c2ccc(F)cc2)c1C1CCC1)C1(C(F)(F)F)CC1", "note": "[Compound 143, (R)-N-(4-cyclobutyl-5-(4-fluorophenyl)-1-(2,2,2-trifluoroethyl)-1H-pyrazol-3-yl)-2-(1-(trifluoromethyl)cyclopropyl)propanamide]", "values": [
      {"measurement": "Kv7.2/7.3 Activity", "result": "− (“−” No Activity < 0.15)"}
    ]},
    {"smiles": "Cn1nc(NC(=O)[C@H]2C[C@]2(C)C(F)(F)F)c(C2CCC2)c1-c1ccc(F)cc1", "note": "[Compound 144, (1S,2S)-N-(4-cyclobutyl-5-(4-fluorophenyl)-1-methyl-1H-pyrazol-3-yl)-2-methyl-2-(trifluoromethyl)cyclopropane-1-carboxamide]", "values": [
      {"measurement": "Kv7.2/7.3 Activity", "result": "++ (“++” High Activity ≥ 0.7)"}
    ]}
  ]
}
